Source: US20130266605A1, “PEPTIDE INHIBITORS OF CD40L SIGNALING AND USES THEREFOR” (PHYLOGICA LIMITED, priority 2010, published 2013)
Where two headings read alike, the source gives them in different places. Positions of bridges follow the written chain, without caps; N, C: chain ends. Non-standard residues stand in square brackets, D forms with d. Residues, ends and D or L forms follow the SMILES beside them. Chains are numbered I, II in the order given. No end group written: not given here. AEEA = NCCOCCOCC(=O)O

Legend:
CD40L-CD40 interaction = molecular target: T1, CD40L-CD40 interaction (Homo sapiens, UniProt P29965); test: Chemiluminescent proximity assay (Alphascreen); format: binding; details: for inhibition of the interaction between CD40L and CD40: in words, Alphascreen proximity assay
T1 sequence (P29965 113-261 limits assumed): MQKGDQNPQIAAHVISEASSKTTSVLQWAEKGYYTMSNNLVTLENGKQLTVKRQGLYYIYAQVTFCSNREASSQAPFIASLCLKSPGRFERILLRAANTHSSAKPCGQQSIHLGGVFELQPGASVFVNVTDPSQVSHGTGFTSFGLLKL
Description: In one example, the Alphascreen assay (PerkinElmer) was employed according to the manufacturer's instructions.
Homodimers and heterodimers were also assayed by chemiluminescent proximity assay for their ability to inhibit CD40L-CD40 interaction.

[1] = molecular target: CD40L-induced CD86 expression on primary B-cells (UniProt P29965); test: Inhibition of CD40L-induced CD86 expression on primary B-cells (FACS); details: for inhibition of CD40L-induced CD86 expression on primary B-cells: in words
Description: In one example, the ability of a peptide, analog or derivative of the invention to inhibit or reduce or delay expression of CD86 on primary B-cells was determined in the presence and absence of the peptides, analogs and derivatives of the invention. In particular, CD86 expression was determined by FACS.
As a control in these assays, LPS-induced expression of CD86 mediated by the Toll-like receptors TLR 2/4, and TNFα-induced cytoxicity, were also assayed to exclude effects mediated by ligands other than CD40L.

CD40L = molecular target: T2, CD40L (Homo sapiens, UniProt P29965); test: Octet Red label-free association/dissociation analysis; format: binding
T2 sequence (P29965 113-261 limits assumed): T1 sequence (P29965 113-261 limits assumed)
Description: Label-free analyses of the associations and dissociations of base peptides and serine derivatives of base peptides with the CD40L target protein were performed using the Octet Red system (ForteBio, Inc., USA) according to the manufacturer's instructions. These analyses provide kinetic constants of CD40L binding activity, especially the association rate constant (Ka) and dissociation rate constant ([…]) of binding, i.e., measures of the “on” and “off” rates of the peptides relative to soluble CD40L.

CD40 ligand = molecular target: T3, CD40 ligand (UniProt P29965 108-261, limits assumed); test: Alphascreen, unmodified peptide, inhibition of CD40L/CD40-Fc
T3 construct: Used immobilised, soluble, or biotinylated on streptavidin beads; also called CD154; soluble CD40L
T3 sequence (looked up): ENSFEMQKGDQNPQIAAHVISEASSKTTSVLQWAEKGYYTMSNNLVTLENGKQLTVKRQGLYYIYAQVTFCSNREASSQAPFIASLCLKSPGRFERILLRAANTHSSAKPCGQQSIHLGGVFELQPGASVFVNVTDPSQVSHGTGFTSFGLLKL

[2] = PEGylated chiral (retro-inverted) analog, read-out: EC50(PEGylated) CD40L/CD40-Fc/BAF617
[3] = read-out: EC50 PEGylated peptide, PEGylated monomeric peptide

Sequence of CD40L-induced CD86 expression on primary B-cells (P29965 whole entry): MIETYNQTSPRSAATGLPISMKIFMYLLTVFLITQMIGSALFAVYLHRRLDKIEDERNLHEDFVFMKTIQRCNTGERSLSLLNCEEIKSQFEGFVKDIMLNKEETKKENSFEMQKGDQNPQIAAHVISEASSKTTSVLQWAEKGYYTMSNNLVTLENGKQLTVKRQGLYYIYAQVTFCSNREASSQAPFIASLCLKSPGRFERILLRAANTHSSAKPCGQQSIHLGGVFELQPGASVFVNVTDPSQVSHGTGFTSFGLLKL
Sequence of CD40L-induced CD86 expression on primary B-cells (P25942 21-277 partner): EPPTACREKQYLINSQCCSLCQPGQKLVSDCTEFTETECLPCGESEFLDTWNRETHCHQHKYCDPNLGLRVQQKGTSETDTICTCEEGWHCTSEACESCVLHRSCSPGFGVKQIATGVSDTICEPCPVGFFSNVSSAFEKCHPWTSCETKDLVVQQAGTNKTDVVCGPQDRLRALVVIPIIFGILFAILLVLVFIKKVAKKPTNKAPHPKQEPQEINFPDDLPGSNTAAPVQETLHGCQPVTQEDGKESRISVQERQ

CC[C@H](C)[C@H](NC(=O)[C@H](CS)NC(=O)[C@H](Cc1ccccc1)NC(=O)[C@@H](NC(=O)[C@H](CC(N)=O)NC(=O)[C@H](CCCCN)NC(=O)[C@@H](NC(=O)[C@H](CO)NC(=O)[C@H](Cc1ccccc1)NC(=O)[C@@H]1CCCN1C(=O)[C@@H](N)Cc1c[nH]cn1)[C@@H](C)CC)C(C)C)C(=O)N[C@@H](Cc1c[nH]c2ccccc12)C(=O)N[C@@H](CC(N)=O)C(=O)N[C@@H](Cc1ccccc1)C(=O)N[C@@H](Cc1ccccc1)C(=O)N[C@@H](CO)C(=O)N[C@H](C(=O)N[C@@H](Cc1ccc(O)cc1)C(=O)O)C(C)C [CD40L M1_6] (H-HPFSIKNVFCIWNFFSVY-OH; N-terminus and C-terminus assumed)
inhibition of the interaction between CD40L and CD40 (CD40L-CD40 interaction): inhibition

FHRMYVILQIIWFITPRWTFP [CD40L M7_206rd]
EC50 (CD40L-CD40 interaction; [2]): 12 nM | EC50 [1, 3]: 2000 nM

RVWNSFWLHIGGRQVGSPVFLSYFRNRVWRP [CD40L M1_50rd]
EC50 (CD40L-CD40 interaction; [2]): 568 nM

CC[C@@H](C)[C@@H](NC(=O)[C@@H](Cc1ccccc1)NC(=O)[C@@H](C)NC(=O)[C@H](NC(=O)[C@@H](CC(C)C)NC(=O)[C@H]1CCCN1C(=O)[C@@H](Cc1ccccc1)NC(=O)[C@@H](CCC(N)=O)NC(=O)[C@@H](Cc1ccc(O)cc1)NC(=O)[C@@H](CC(C)C)NC(=O)[C@@H](Cc1c[nH]cn1)NC(=O)[C@@H](CCCNC(=N)N)NC(=O)[C@@H](CS)NC(=O)[C@H](N)CCCNC(=N)N)C(C)C)C(=O)N[C@H](CO)C(=O)N[C@H](Cc1c[nH]c2ccccc12)C(=O)N[C@H](CCC(N)=O)C(=O)N[C@@H](C(=O)N1CCC[C@@H]1C(=O)N[C@H](Cc1ccccc1)C(=O)N[C@H](Cc1ccccc1)C(=O)N[C@H](Cc1c[nH]c2ccccc12)C(=O)NCC(=O)N[C@H](Cc1ccc(O)cc1)C(=O)N[C@H](CCCCN)C(=O)N[C@H](CC(C)C)C(=O)N[C@@H](C(=O)N[C@H](Cc1c[nH]cn1)C(=O)N[C@H](CO)C(=O)N[C@H](CCCNC(=N)N)C(=O)N[C@H](Cc1ccc(O)cc1)C(=O)N1CCC[C@@H]1C(=O)N[C@@H](C(=O)N[C@H](Cc1ccccc1)C(=O)N1CCC[C@@H]1C(=O)N[C@H](CC(C)C)C(=O)O)C(C)C)C(C)C)C(C)C [CD40L M1_18rd] (H-[dR][dC][dR][dH][dL][dY][dQ][dF][dP][dL][dV][dA][dF][dI][dS][dW][dQ][dV][dP][dF][dF][dW]G[dY][dK][dL][dV][dH][dS][dR][dY][dP][dV][dF][dP][dL]-OH; N-terminus and C-terminus assumed)
inhibition of CD40L-induced CD86 expression on primary B-cells [1]: enhanced inhibition

PFTWRPTIFWIIQLIVYMRHFGGGGSRSELLRENICRYVSLFDHPLQRNTPLDELRFVIFDTETSGFDLVKDRILSIR [CD40L D1_0014]
Kd (CD40L): 48 nM | higher affinity for CD40L than the base monomeric peptide (CD40L; heterodimer versus N-terminal monomer, from Table 2 data): 6 fold

VHSYYVWILQFYYKFRSYRWHYQIS [CD40L M1_82rd]
EC50 (CD40L-CD40 interaction; [2]): 10 nM | EC50 [1, 3]: 470 nM

FYLYDRRFSSYFRFLFFLNYRPP [CD40L M1_9rd]
EC50 (CD40L-CD40 interaction; [2]): 14 nM

CC[C@H](C)[C@H](NC(=O)[C@H](CO)NC(=O)[C@H](Cc1ccccc1)NC(=O)[C@@H](NC(=O)[C@H](CC(N)=O)NC(=O)[C@H](CCCCN)NC(=O)[C@@H](NC(=O)[C@H](CO)NC(=O)[C@H](Cc1ccccc1)NC(=O)[C@@H]1CCCN1C(=O)[C@H](Cc1c[nH]cn1)NC(=O)COCCOCCNC(=O)[C@@H](N)CSSC[C@H](N)C(=O)NCCOCCOCC(=O)N[C@@H](Cc1c[nH]cn1)C(=O)N1CCC[C@H]1C(=O)N[C@@H](Cc1ccccc1)C(=O)N[C@@H](CO)C(=O)N[C@H](C(=O)N[C@@H](CCCCN)C(=O)N[C@@H](CC(N)=O)C(=O)N[C@H](C(=O)N[C@@H](Cc1ccccc1)C(=O)N[C@@H](CO)C(=O)N[C@H](C(=O)N[C@@H](Cc1c[nH]c2ccccc12)C(=O)N[C@@H](CC(N)=O)C(=O)N[C@@H](Cc1ccccc1)C(=O)N[C@@H](Cc1ccccc1)C(=O)N[C@@H](CO)C(=O)N[C@H](C(=O)N[C@@H](Cc1ccc(O)cc1)C(=O)O)C(C)C)[C@@H](C)CC)C(C)C)[C@@H](C)CC)[C@@H](C)CC)C(C)C)C(=O)N[C@@H](Cc1c[nH]c2ccccc12)C(=O)N[C@@H](CC(N)=O)C(=O)N[C@@H](Cc1ccccc1)C(=O)N[C@@H](Cc1ccccc1)C(=O)N[C@@H](CO)C(=O)N[C@H](C(=O)N[C@@H](Cc1ccc(O)cc1)C(=O)O)C(C)C [Cys_M1_6S homodimer] (I: H-C[AEEA]HPFSIKNVFSIWNFFSVY-OH / II: H-C[AEEA]HPFSIKNVFSIWNFFSVY-OH; disulfide I:1-II:1; C-terminus assumed)
inhibition of the interaction between CD40L and CD40 (CD40L-CD40 interaction; listed as 6-6 dimer): enhanced inhibition | inhibition of the interaction between CD40L and CD40 (CD40L-CD40 interaction; listed as homodimer of the Phylomer peptide M1—6): inhibition | inhibition of CD40L-induced CD86 expression on primary B-cells [1]: enhanced inhibition

CC[C@H](C)[C@H](NC(=O)[C@H](CO)NC(=O)[C@H](Cc1c[nH]c2ccccc12)NC(=O)[C@H](CCC(N)=O)NC(=O)[C@@H](NC(=O)[C@@H]1CCCN1C(=O)[C@H](Cc1ccccc1)NC(=O)[C@H](Cc1ccccc1)NC(=O)[C@H](Cc1c[nH]c2ccccc12)NC(=O)CNC(=O)[C@H](Cc1ccc(O)cc1)NC(=O)[C@H](CCCCN)NC(=O)[C@H](CC(C)C)NC(=O)[C@@H](NC(=O)[C@H](Cc1c[nH]cn1)NC(=O)[C@H](CO)NC(=O)[C@H](CCCNC(=N)N)NC(=O)[C@H](Cc1ccc(O)cc1)NC(=O)[C@@H]1CCCN1C(=O)[C@@H](NC(=O)[C@H](Cc1ccccc1)NC(=O)[C@@H]1CCCN1C(=O)[C@@H](N)CC(C)C)C(C)C)C(C)C)C(C)C)C(=O)N[C@@H](Cc1ccccc1)C(=O)N[C@@H](C)C(=O)N[C@H](C(=O)N[C@@H](CC(C)C)C(=O)N1CCC[C@H]1C(=O)N[C@@H](Cc1ccccc1)C(=O)N[C@@H](CCC(N)=O)C(=O)N[C@@H](Cc1ccc(O)cc1)C(=O)N[C@@H](CC(C)C)C(=O)N[C@@H](Cc1c[nH]cn1)C(=O)N[C@@H](CCCNC(=N)N)C(=O)N[C@@H](CS)C(=O)N[C@@H](CCCNC(=N)N)C(=O)O)C(C)C [CD40L M1_18] (H-LPFVPYRSHVLKYGWFFPVQWSIFAVLPFQYLHRCR-OH; N-terminus and C-terminus assumed)
inhibition of CD40L-induced CD86 expression on primary B-cells [1]: concentration-dependent inhibition

SKVRMQFDIINFPVNVGFLVFSH [CD40L M1_42rd]
EC50 (CD40L-CD40 interaction; [2]): 16 nM

I: H-C[AEEA]PPRYNLFFLFRFYSSFRRDYLYF / II: H-C[AEEA]HPFSIKNVFSIWNFFSVY (disulfide I:1-II:1) [Cys_M1_6S-Cys_M1_9S heterodimer]
inhibition of the interaction between CD40L and CD40 (CD40L-CD40 interaction; listed as 6-9 dimer): enhanced inhibition | inhibition of the interaction between CD40L and CD40 (CD40L-CD40 interaction; listed as 6-9 high purity dimer): inhibition | inhibition of CD40L-induced CD86 expression on primary B-cells [1]: enhanced inhibition

YVSFFNWISFVNKISFPH [CD40L M1_6rd]
EC50 (CD40L-CD40 interaction; [2]): 20 nM

CC[C@H](C)[C@H](NC(=O)[C@H](CO)NC(=O)[C@H](Cc1ccccc1)NC(=O)[C@@H]1CCCN1C(=O)[C@@H]1CCCN1C(=O)[C@H](CO)NC(=O)[C@H](Cc1ccccc1)NC(=O)[C@H](Cc1ccccc1)NC(=O)[C@H](Cc1ccccc1)NC(=O)[C@H](CC(C)C)NC(=O)[C@H](CC(C)C)NC(=O)[C@@H](N)CC(C)C)C(=O)N[C@@H](Cc1ccccc1)C(=O)N[C@@H](CS)C(=O)N[C@@H](Cc1ccccc1)C(=O)N[C@@H](CO)C(=O)N[C@@H](CC(C)C)C(=O)N[C@H](C(=O)N[C@H](C(=O)N[C@@H](CC(C)C)C(=O)N[C@@H](CO)C(=O)O)[C@@H](C)O)[C@@H](C)O [CD40L M7_189] (H-LLLFFFSPPFSIFCFSLTTLS-OH)
EC50 (CD40L-CD40 interaction; monomeric non-PEGylated (unmodified) base peptide; 50% reduction in control emission at 520-620 nm; read-out: EC50nmodified) CD40L/CD40-Fc/BAF617): 120 nM

I: H-C[AEEA]LLLFFFSPPFSIFSFSLTTLS / II: H-C[AEEA]HPFSIKNVFSIWNFFSVY (disulfide I:1-II:1) [Cys_M1_6S-Cys_M1_189S heterodimer]
inhibition of the interaction between CD40L and CD40 (CD40L-CD40 interaction; listed as 6-189 dimer): enhanced inhibition | inhibition of the interaction between CD40L and CD40 (CD40L-CD40 interaction; listed as 6-189 high purity dimer): inhibition | inhibition of CD40L-induced CD86 expression on primary B-cells [1]: enhanced inhibition

AQWWHHRFSFLGAIQFFERGAAD [CD40L M1_30rd]
EC50 (CD40L-CD40 interaction; [2]): 24 nM

B1: CD40L M2_159 (peptide)
peptide: LLYVKVICFFCMLVQYNNFQTYK
notes: Base peptide
EC50 (CD40 ligand): 120 nM

B2: CD40L M1_42 (peptide)
peptide: HSFVLFGVNVPFNIIDFQMRVKC
notes: Base peptide
EC50 (CD40 ligand): 200 nM

B3: CD40L: CD40 ligand used to induce CD86 expression on primary B-cells (protein)
chain: T3 sequence (looked up)
EC50 ([1]; read-out: EC50 value of CD40L induction of CD86 expression, absence of a peptidyl inhibitor): ~9 nM
